The structures appear in SMILES notation. Some results are limits rather than exact numbers.

Series [1] in a line: Biodistribution in Gossypium hirsutum (cotton) plant leaf at 500 mg/L after 16 hr. It counts as ADME, organism-based. Particulars: read-out: Drug uptake.
The species named for series [2] is Oryctolagus cuniculus. Put plainly: Toxicity in Oryctolagus cuniculus (rabbit) assessed as skin irritation. The class given is organism-based. Particulars: in vivo.
Series [3] can be described thus: Biodistribution in Gossypium hirsutum (cotton) plant leaf at 500 mg/L after 48 hr. It counts as ADME, organism-based. Particulars: read-out: Drug uptake.
Series [4] relates to Rhizoctonia solani. Put plainly: Antifungal activity against Rhizoctonia solani in five-leaf stage of cucumber growing soil at 168 g/ha treated 48 hr before inoculation measured after 6 days relative to control by pot culture test. It counts as functional.
The nature of series [5]: Acute dermal toxicity in Rattus norvegicus (rat). The class given is organism-based, Skin of body. Particulars: in vivo, topical or ocular.
In series [6] the test system is Rhizoctonia solani. Put plainly: Antifungal activity against Rhizoctonia solani in five-leaf stage of cucumber growing soil at 504 g/ha treated 48 hr before inoculation measured after 6 days relative to control by pot culture test. The class given is functional.
Series [7] in a line: Biodistribution in Gossypium hirsutum (cotton) plant leaf at 500 mg/L after 8 hr. The class given is ADME, organism-based. As to conditions: read-out: Drug uptake.
The subject of series [8] is Botrytis cinerea. Put plainly: Antifungal activity against Botryotinia fuckeliana in seven to eight-leaf stage of tomato plant at 315 g/ha treated 24 hr before inoculation measured after 5 days relative to control. The class given is functional.
In series [9] the test system is Botrytis cinerea. The experiment in a line: Antifungal activity against Botryotinia fuckeliana in seven to eight-leaf stage of tomato plant at 168 g/ha treated 24 hr before inoculation measured after 5 days relative to control. The class given is functional.
A short description of series [10]: Biodistribution in Gossypium hirsutum (cotton) plant root at 500 mg/L after 36 hr. It counts as ADME, organism-based. As to conditions: read-out: Drug uptake.
Series [11] relates to Botrytis cinerea. Put plainly: Antifungal activity against Botryotinia fuckeliana in seven to eight-leaf stage of tomato plant at 504 g/ha treated 24 hr before inoculation measured after 5 days relative to control. The class given is functional.
Series [12] in a line: Biodistribution in Gossypium hirsutum (cotton) plant leaf at 500 mg/L after 4 hr. It counts as ADME, organism-based. Particulars: read-out: Drug uptake.
Series [13] concerns Rhizoctonia solani. Put plainly: Antifungal activity against Rhizoctonia solani in five-leaf stage of cucumber growing soil at 315 g/ha treated 48 hr before inoculation measured after 6 days relative to control by pot culture test. It counts as functional.
The nature of series [14]: Biodistribution in Gossypium hirsutum (cotton) plant stem at 500 mg/L after 16 hr. The class given is ADME, organism-based. Particulars: read-out: Drug uptake.
The nature of series [15]: Biodistribution in Gossypium hirsutum (cotton) plant stem at 500 mg/L after 24 hr. It counts as ADME, organism-based. As to conditions: read-out: Drug uptake.
Series [16] in a line: Biodistribution in Gossypium hirsutum (cotton) plant root at 500 mg/L after 16 hr. The class given is ADME, organism-based. Particulars: read-out: Drug uptake.
Series [17] concerns Botrytis cinerea. Put plainly: Antifungal activity against Botryotinia fuckeliana in cucumber plant at 450 g/ha treated 2 times in 6 days interval measured after 7 days last treatment relative to control. It counts as functional.
Series [18] in a line: Biodistribution in Gossypium hirsutum (cotton) plant stem at 500 mg/L after 36 hr. As to conditions: read-out: Drug uptake. It counts as ADME, organism-based.
Series [19] is filed under the species Oryctolagus cuniculus. Put plainly: Toxicity in Oryctolagus cuniculus (rabbit) assessed as eye irritation. It counts as organism-based. Particulars: in vivo.
A short description of series [20]: Biodistribution in Gossypium hirsutum (cotton) plant root at 500 mg/L after 24 hr. It counts as ADME, organism-based. Particulars: read-out: Drug uptake.
Series [21] in a line: Biodistribution in Gossypium hirsutum (cotton) plant root at 500 mg/L after 48 hr. The class given is ADME, organism-based. Particulars: read-out: Drug uptake.
Series [22] is described as follows: Biodistribution in Gossypium hirsutum (cotton) plant leaf at 500 mg/L after 36 hr. The class given is ADME, organism-based. Particulars: read-out: Drug uptake.
Series [23] in a line: Biodistribution in Gossypium hirsutum (cotton) plant stem at 500 mg/L after 4 hr. It counts as ADME, organism-based. Particulars: read-out: Drug uptake.
Series [24] is described as follows: Acute oral toxicity in Rattus norvegicus (rat). The class given is organism-based. As to conditions: in vivo.
A short description of series [25]: Biodistribution in Gossypium hirsutum (cotton) plant leaf at 500 mg/L after 24 hr. Particulars: read-out: Drug uptake. It counts as ADME, organism-based.
In series [26] the test system is Botrytis cinerea. The experiment in a line: Antifungal activity against Botryotinia fuckeliana in cucumber plant at 281 g/ha treated 2 times in 6 days interval measured after 7 days last treatment relative to control. The class given is functional.
Series [27] can be described thus: Biodistribution in Gossypium hirsutum (cotton) plant stem at 500 mg/L after 8 hr. The class given is ADME, organism-based. As to conditions: read-out: Drug uptake.
Series [28] in a line: Biodistribution in Gossypium hirsutum (cotton) plant root at 500 mg/L after 8 hr. As to conditions: read-out: Drug uptake. It counts as ADME, organism-based.
The nature of series [29]: Biodistribution in Gossypium hirsutum (cotton) plant root at 500 mg/L after 4 hr. It counts as ADME, organism-based. Particulars: read-out: Drug uptake.
The nature of series [30]: Biodistribution in Gossypium hirsutum (cotton) plant stem at 500 mg/L after 48 hr. The class given is ADME, organism-based. As to conditions: read-out: Drug uptake.
Series [31] has as its system Botrytis cinerea. Put plainly: Antifungal activity against Botryotinia fuckeliana in seven to eight-leaf stage of tomato plant at 563 g/ha treated 24 hr before inoculation measured after 5 days relative to control. It counts as functional.
The subject of series [32] is Rhizoctonia solani. Put plainly: Antifungal activity against Rhizoctonia solani in five-leaf stage of cucumber growing soil at 450 g/ha treated 48 hr before inoculation measured after 6 days relative to control by pot culture test. It counts as functional.

What is called LD50 is the dose expected to kill half of the subjects tested. On to `CCCON=C1CCCCCCCCCCC(=O)NCCC1`, for which the concentration at 16 h was found to be 330 ng/g in series [1], 2710 ng/g in series [14] and 97000 ng/g in series [16]. Also, the LD50 result in series [2] was “Non-toxic”; in series [5], over 2000 mg/kg; in series [19], “Toxic”; in [24], over 5000 mg/kg. Further, the concentration at 48 h was 2530 ng/g in [3], 137000 ng/g in [21] and 5120 ng/g in [30]. The Activity in series [4] is reported as 38.99%; in [6], 73.59%; in [8] it was 85.82%; in series [9], 80.67%; in series [11] it was 87.51%; in series [13], 53.46%. The Activity is 95.14% in series [17] and 89.51% in [26]. Further, the values for the concentration at 8 h in [7], in series [27] and in series [28] were 110 ng/g, 870 ng/g and 66700 ng/g, respectively. Besides, the figures for the concentration at 36 h in series [10], in [18] and in [22] were 116000 ng/g, 8950 ng/g and 2930 ng/g, respectively. Moreover, the concentration at 4 h was 40 ng/g in [12], 190 ng/g in series [23] and 54400 ng/g in series [29]. Moreover, the concentration at 24 h is 4270 ng/g in series [15], 98000 ng/g in [20] and 890 ng/g in [25].
`CC(C)NC(=O)N1CC(=O)N(c2cc(Cl)cc(Cl)c2)C1=O` [IPRODIONE] had an Activity in [31] of 90.39%.
For `CN(C)C(=S)SSC(=S)N(C)C` [THIRAM], in series [32], the Activity was 42.14%.

(Values after ChEMBL document CHEMBL3046961, “Fungicidal activity of 12-propoxyimino-1, 15-pentadecanlactam on selected crops” (Crop Prot, 2009).)
